Test results from paper PMC10268404, “Insight into broad substrate specificity and synergistic contribution of a fungal α-glucosidase in Chinese Nong-flavor daqu” (Microbial Cell Factories, 2023).

Assays:
[1] = test system: T1, NFAg31A (also printed NFEg31A), product of ORF15963; experiment: HPAEC-PAD of released glucose, Michaelis-Menten fit; format: biochemical; conditions: pH 7.0, 45 ℃, 15 min, 0.25 µM enzyme
T1 construct: 960 aa ORF without 30 aa signal peptide (primer-derived start M-VKHENFKK, end REWRI), incl; C-terminal DUF5100; 6xHis kept, printed C-terminal (but reverse primer holds a stop, so probably N-terminal pET-28a tag); E. coli BL21(DE3)
Text: HPAEC-PAD of released glucose, Michaelis-Menten fit on NFAg31A (also printed NFEg31A), product of ORF15963

[2] = test system: T1, NFAg31A (also printed NFEg31A), product of ORF15963; experiment: p-nitrophenol release at […] nm, Michaelis-Menten fit; format: biochemical; conditions: pH 7.0, 45 ℃, 15 min, 0.25 µM enzyme

| SMILES | Km [1] [mM] | Km [2] [mM] |
| --- | --- | --- |
| OC[C@H]1O[C@H](O[C@H]2C(O)O[C@H](CO)[C@@H](O)[C@@H]2O)[C@H](O)[C@@H](O)[C@@H]1O (stereo partly shown) [Kojibiose] | 3.9 ± 0.3 |  |
| OC[C@H]1O[C@H](O[C@H]2[C@H](O)[C@@H](O)C(O)O[C@@H]2CO)[C@H](O)[C@@H](O)[C@@H]1O (stereo partly shown) [Maltose] | 11.5 ± 0.7 |  |
| OC[C@H]1O[C@H](O[C@H]2[C@H](O)[C@@H](CO)OC(O)[C@@H]2O)[C@H](O)[C@@H](O)[C@@H]1O (stereo partly shown) [Nigerose] | 19.3 ± 2.5 |  |
| O=[N+]([O-])c1ccc(O[C@H]2O[C@H](CO)[C@@H](O)[C@H](O)[C@H]2O)cc1 [pNPαG, p-Nitrophenyl-α-D-glucopyranoside] |  | 0.55 ± 0.06 |
